One data set relates to Crl:CD-1(ICR) BR mice. Description: Dose range finding study (mortality). The settings on record: oral gavage. It is filed as in vivo, mouse. On the procedure:
Since no appropriate toxicity data were available (e.g., the same species, strain, route, etc.), a dose range finding study was performed using the same treatment regimen used in the micronucleus assay. Young adult male and female mice of the Crl:CD-1®(ICR) BR strain from Charles River Laboratories, Raleigh, N.C., were used in this study. Dose levels of 0, 125, 250, and 500 mg/kg were tested.

Data set [1] relates to polychromatic erythrocyte cells in Crl:CD-1(ICR) BR mouse bone marrow. In words: In vivo mouse micronucleus assay. The settings on record: for statistically significant increase in micronucleated PCEs: 31.25, 62.5 and 125 mg/kg; for signs of clinical toxicity in treated animals: mice dosed up to and including 125 mg/kg. On the procedure:
The objective of this study was to evaluate 14-hydroxycodeinone for in vivo clastogenic activity and/or disruption of the mitotic apparatus by detecting micronuclei in polychromatic erythrocyte cells in Crl:CD-1®(ICR) BR mouse bone marrow. The assay design was based on Organization for Economic Co-operation and Development (OECD) guideline 474, updated and adopted Jul. 21, 1997. The study was conducted in compliance with the Good Laboratory Practice regulations as set forth by the FDA.
The micronucleus test can serve as a rapid screen for clastogenic agents and test articles which interfere with normal mitotic cell division (Schmid, W., The micronucleus test. Mutat. Res. 31, 9-15, 1975; Heddle et al., The introduction of micronuclei as a measure of genotoxicity. Mutat. Res. 123, 61-118, 1983). Micronuclei are small chromatin bodies, consisting of entire chromosomes and/or acentric chromosome fragments, which lag behind at mitotic anaphase. At telophase, these multiple micronuclei are in the cytoplasm. During maturation of hematopoietic cells from erythoblasts to erythocytes, the nucleus is extruded. Micronuclei, if present, persist in the cytoplasm of these non-nucleated cells. Detection of micronuclei in non-nucleated cells eliminates the need to search for metaphase spreads in treated cell populations. Test articles affecting spindle-fiber function or formation can be detected through micronucleus induction. In this study, enucleated immature red blood cells or polychromatic erythrocytes (PCEs) were analyzed for the presence of micronuclei.
The micronucleus assay used 48 animals approximately 8 weeks old at the […], with a weight range of 28.4 to 35.3 g.
At least 2000 erythrocytes (PCEs) per animal were analyzed for the presence of […] was assessed by scoring the number of PCEs and ic erythrocytes (NCEs) in at least the first 500 erythrocytes for each […] of the micronuleus assay results is presented in the following table.

The structures appear in SMILES notation. Where “and” joins values, the source holds several entries; their conditions need not be identical. Identical values can stand only once. Entries after “also recorded” stand apart in the source; their conditions may differ.

Take `COc1ccc2c3c1OC1C(=O)C=C[C@@]4(O)[C@@H](C2)N(C)CC[C@]314` (some centres unmarked) [14-hydroxycodeinone]: the “Number of Mice (died/total)” value was 0/6 in the data set on Crl:CD-1(ICR) BR mice (125 mg/kg); 3 of 6 and 3/6 in the data set with Crl:CD-1(ICR) BR mice (250 mg/kg); 14 of 18 and 14/18 in the data set with Crl:CD-1(ICR) BR mice (500 mg/kg). Also, the “PCE:NCE mean ratio” value in data set [1] (31.25 mg/kg oral gavage, harvest 24 Hours) is listed as 0.74; in data set [1] (62.5 mg/kg oral gavage, harvest 24 Hours), 0.64; in data set [1] (125 mg/kg oral gavage, harvest 24 Hours), 0.66; in data set [1] (125 mg/kg oral gavage, harvest 48 Hours) it was 0.36. Moreover, in data set [1] (125 mg/kg, 48-hour group, difference not statistically significant at p≦0.05), the “bone marrow toxicity (PCE:NCE ratio versus control 0.60)” value was “suggesting induced bone marrow toxicity”. Moreover, the “statistically significant increase in micronucleated PCEs” value in data set [1] is recorded as “no signs of clinical toxicity or a statistically significant increase in micronucleated PCEs”; in data set [1] (listed as 14-Hydroxycodeinone), “did not induce statistically significant increases”. The “outcome of the mouse bone marrow micronucleus assay (mutagenic properties)” value in data set [1] (doses up to 125 mg/kg in mice) was “does not exhibit mutagenic properties; also recorded: negative”. The “signs of clinical toxicity in treated animals” value is reported as “no signs of clinical toxicity” in data set [1] and “did not induce signs of clinical” in data set [1] (listed as 14-hyrdroxycodeinone). Besides, in data set [1] (treated groups overall), the “cytotoxicity to the bone marrow (PCE:NCE ratios versus control)” value is reported as “lack of cytotoxicity to the bone marrow”.

The values are drawn from patent US20070117826A1, “Pharmaceutical formulations comprising ibuprofen, oxycodone, and 14-hydroxycodeinone” (Forest Laboratories, Inc., priority 2005, published 2007).
